{"source": "patent US9737493B2", "about": "“Compositions and methods for modulating DNMT1 inhibitor activity” (University of Louisville Research Foundation, Inc., priority 2012, dated 2017)", "key": {"Colo-205 xenografts": {"system": "Colo-205 xenografts", "assay": "Colo-205 xenografts in nude mice", "type": "in vivo", "details": "25 mg/kg daily for 21 days, i.v."}, "[1]": {"system": "A549 non-small cell lung cancer cells", "assay": "MTT cell proliferation assay", "type": "cell-based, human", "details": "A549, MTT, in combination with XB05, 72 h", "procedure": "(§1) Cell Proliferation Assays. The antiproliferative activity of XB05 was tested using a previously published 3-(4,5-dimethylthiazol-2-yl)-2,5-diphenyltetrazolium bromide (MTT) assay protocol (Girvan et al., “AGRO100 inhibits activation of nuclear factor-kappaB (NF-kappaB) by forming a complex with NF-kappaB essential modulator (NEMO) and nucleolin” Molecular Cancer Therapeutics (2006) Vol. 5, No. 7, pp. 1790-1799). Briefly, cells were seeded in quadruplicate wells in 96-well plates and allowed to adhere overnight. […] Plates were incubated with XB05 for 72 h, during which the cell culture medium was not changed. Cell viability was determined and the background corresponding to medium alone (no cells) was subtracted. Data were analyzed as described in the Brief Description of the Drawings.\n(§2) XB05 has Cancer-Selective Antiproliferative Activity. XB05 was tested to determine its antiproliferative activity in a variety of human cell lines that are derived from malignant tissues or from non-malignant (immortalized but not transformed) cells and listed in FIG. 1B. As described in Materials and Methods, cells were treated with varying concentrations of XB05 for 72 h and evaluated using the MTT cell proliferation assay."}, "[2]": {"system": "U937 myeloid leukemia cells", "assay": "MTT cell proliferation assay", "type": "cell-based, human", "details": "U937, MTT and flow cytometric assays, in combination with XB05, 72 h", "procedure": "as §1, §2"}, "MDA-MB-231 cells": {"system": "MDA-MB-231 cells", "assay": "Clonogenic cell survival assay", "type": "cell-based, human", "details": "MDA-MB-231, NAC and GSH 5 mM, AA 100 μM, 10 days", "protocol": "Clonogenic cell survival assays were conducted with MDA-MB-231 cells treated as indicated and grown in culture for 10 days (see Methods). Clonogenic Assays. Cells were plated at low density (300 cells/well) in 6-well tissue culture plates, and allowed to adhere overnight. Where indicated, the medium was then replaced with fresh medium containing antioxidants or vehicle (sterile ultrapure H2O). XB05 or vehicle control (DMSO) was then added directly to the medium at the concentrations indicated. After 10 days, cells were fixed with 4% paraformaldehyde in PBS and stained with Accustain Crystal Violet Solution (Sigma Aldrich) washed and air-dried. Colonies were counted using the cell counter feature in the Image J software, available from the National Institute of Health (<<rsbweb.nih.gov/ij/download.html>>)."}, "A549 cells [3]": {"system": "A549 cells", "type": "cell-based", "details": "for effect of antioxidant on XB05-induced cell death: A549, annexin/PI, in combination with XB05, 72 h", "procedure": "Some cells were treated with buthionine sulfoximine (BSO, 200 μM) plus diethyl maleate (DEM, 1 mM) for 3 h as a positive control for GSH depletion. Bar graph indicates mean+/−SEM from three independent experiments. […] Membranes were stripped and reprobed for Ku-70 as a loading control.\nFlow Cytometric Assays. Analyses were performed using a FACScalibur flow cytometer (BD Biosciences, Mountain View, Calif.) and FlowJo software (Tree Star, Inc., Ashland, Oreg.). Cells were treated as indicated in the figures and in the Brief Description of the Drawings. Cells were harvested by using TrypLE Cell Dissociation Reagent (Life Technologies). For cell death analyses, cells (adherent and detached cells) were stained with annexin-V-FITC and propidium iodide (PI) using the Apoptosis Detection Kit (BD Biosciences, San Jose, Calif.), according to the manufacturer's instructions. For cell-cycle distribution, cells were fixed, and stained with PI using the Cycle Test Plus kit (Becton Dickinson, Franklin Lakes, N.J.). For detection of γ-H2AX, cells were washed with PBS and fixed in 4% paraformaldehyde in PBS for 10 min at 37° C. […] After washing with PBS, cells were re-suspended in PBS containing 1 μg/mL PI to allow exclusion of non-viable cells. For detection of mitochondrial superoxide, cells were harvested, washed with PBS and stained with 5 μM MitoSOX™ Red (Life Technologies) in warm PBS for 10 min at 37° C. Cells were then washed twice with PBS, re-suspended at a density of 1×10^6 cells/mL in PBS and analyzed by flow cytometry."}, "A549 cells [4]": {"system": "A549 cells", "details": "A549, in combination with XB05, 10 days", "protocol": "(C) Clonogenic cell survival assays were conducted in A549 cells treated as indicated and grown in culture for 10 days (see Methods). Bar graph indicates mean values (+/−SEM) for colony growth inhibition from 3 independent experiments. […] Clonogenic Assays. Cells were plated at low density (300 cells/well) in 6-well tissue culture plates, and allowed to adhere overnight. Where indicated, the medium was then replaced with fresh medium containing antioxidants or vehicle (sterile ultrapure H2O). XB05 or vehicle control (DMSO) was then added directly to the medium at the concentrations indicated. After 10 days, cells were fixed with 4% paraformaldehyde in PBS and stained with Accustain Crystal Violet Solution (Sigma Aldrich) washed and air-dried. Colonies were counted using the cell counter feature in the Image J software, available from the National Institute of Health (<<rsbweb.nih.gov/ij/download.html>>)."}, "U937 cells [5]": {"system": "U937 cells", "assay": "Annexin/PI flow cytometric cell death analysis", "type": "cell-based, human", "details": "U937, 50 and 100 μM BSO, 1 μM XB05, 72 h", "procedure": "Data shown are representative of three independent experiments. (B) The cell lines indicated were treated with DMSO vehicle or XB05 (1 μM for U937 and Hs27, or 2 μM for A549) for the timepoints indicated. (C) The cell lines indicated were treated with DMSO vehicle, XB05 (1 μM for U937 and Hs27, or 2 μM for A549) or Thapsigargin positive control (2 μM) for 24 h. Densitometry was performed to quantify western blot band intensities for phospho-eIF2α (ser51), total eIF2α and BiP (representative blot shown in FIG. 8D). All values were normalized to DMSO vehicle control. Bar graphs indicate the average band intensity for three independent experiments, +/−the standard error of the mean. Statistical significance for XB05 compared to vehicle is indicated (*p≦0.05 and **p≦0.01).\nFlow Cytometric Assays. Analyses were performed using a FACScalibur flow cytometer (BD Biosciences, Mountain View, Calif.) and FlowJo software (Tree Star, Inc., Ashland, Oreg.). Cells were treated as indicated in the figures and in the Brief Description of the Drawings. Cells were harvested by using TrypLE Cell Dissociation Reagent (Life Technologies). […] Cells were then washed twice with PBS, re-suspended at a density of 1×10^6 cells/mL in PBS and analyzed by flow cytometry."}, "U937 cells [6]": {"system": "U937 cells", "assay": "Clonogenic cell survival assay", "type": "cell-based, human", "details": "U937, 100 μM BHA, data not shown"}}}
{"smiles": "CC/C=C\\CCC(O)C#CC(F)(F)Br", "note": "(centres unmarked) [LD-01-072]", "values": [{"measurement": "in vivo antitumor efficacy", "setting": "Colo-205 xenografts", "result": "in vivo antitumor efficacy"}, {"measurement": "non-specific toxicity judged by body weight", "setting": "Colo-205 xenografts", "result": "no evidence of any severe non-specific toxicities"}]}
{"smiles": "CC(=O)N[C@@H](CS)C(=O)O", "note": "[NAC, N-acetyl cysteine]", "values": [{"measurement": "effect of antioxidant on antiproliferative effects of XB05", "setting": "[1]", "result": "diminish the antiproliferative effects of XB05"}, {"measurement": "protection from antiproliferative and cytotoxic effects of XB05", "setting": "[2]", "result": "protect these cells from the antiproliferative and cytotoxic effects of XB05"}, {"measurement": "protection from cytotoxic effects of XB05", "setting": "MDA-MB-231 cells", "result": "protect these cells from the cytotoxic effects of XB05"}, {"measurement": "effect of antioxidant on XB05-induced cell death", "setting": "A549 cells [3]", "result": "protected cells from XB05-induced apoptosis and nonapoptotic cell death"}, {"measurement": "effect of antioxidant on XB05 effect on clonogenic survival", "setting": "A549 cells [4]", "result": "abrogated the effect of XB05 on clonogenic survival"}]}
{"smiles": "O=C1O[C@H]([C@@H](O)CO)C(O)=C1O", "note": "[AA, L-ascorbic acid]", "values": [{"measurement": "effect of antioxidant on antiproliferative effects of XB05", "setting": "[1]", "result": "no effect"}, {"measurement": "protection from antiproliferative and cytotoxic effects of XB05", "setting": "[2]", "result": "not"}, {"measurement": "protection from cytotoxic effects of XB05", "setting": "MDA-MB-231 cells", "result": "not"}, {"measurement": "effect of antioxidant on XB05-induced cell death", "setting": "A549 cells [3]", "result": "slightly enhanced the pro-apoptotic activity of XB05"}, {"measurement": "effect of antioxidant on XB05 effect on clonogenic survival", "setting": "A549 cells [4]", "result": "no protective effect"}]}
{"smiles": "CCCCS(=N)(=O)CCC(N)C(=O)O", "note": "(centres unmarked) [BSO, buthionine sulfoximine]", "values": [{"measurement": "cytotoxicity of BSO plus XB05 compared to XB05 alone", "setting": "A549 cells [3]; A549, 50 and 100 μM BSO, 2 μM XB05, 72 h", "result": "enhanced cytotoxicity compared to XB05 treatment alone"}, {"measurement": "cytotoxicity of BSO plus XB05 compared to XB05 alone", "setting": "U937 cells [5]", "result": "enhanced cytotoxicity compared to XB05 treatment alone"}]}
{"smiles": "N[C@@H](CCC(=O)N[C@@H](CS)C(=O)NCC(=O)O)C(=O)O", "note": "[GSH, reduced glutathione]", "values": [{"measurement": "effect of antioxidant on antiproliferative effects of XB05", "setting": "[1]", "result": "diminish the antiproliferative effects of XB05"}, {"measurement": "protection from antiproliferative and cytotoxic effects of XB05", "setting": "[2]", "result": "protect these cells from the antiproliferative and cytotoxic effects of XB05"}, {"measurement": "protection from cytotoxic effects of XB05", "setting": "MDA-MB-231 cells", "result": "protect these cells from the cytotoxic effects of XB05"}, {"measurement": "effect of antioxidant on XB05-induced cell death", "setting": "A549 cells [3]", "result": "protected cells from XB05-induced apoptosis and nonapoptotic cell death"}, {"measurement": "effect of antioxidant on XB05 effect on clonogenic survival", "setting": "A549 cells [4]", "result": "abrogated the effect of XB05 on clonogenic survival"}]}
{"smiles": "COc1ccc(O)c(C(C)(C)C)c1", "note": "[BHA, butylated hydroxyanisole]", "values": [{"measurement": "protection from XB05 activity", "setting": "U937 cells [6]", "result": "no protective effect"}]}
